This note sets out measurements from US9745283B2, “Uracil derivatives as AXL and c-MET kinase inhibitors” (priority 2011, dated 2017).

Test [1] concerns the target recombinant human baculovirus-expressed cMET (Homo sapiens (Human), UniProt P08581). Description: C-MET Kinase Assay (HTRF KinEASE). The format is biochemical. As to conditions: average of two or more determinations; read-out: c-MET IC50. How it is done:
The cMET kinase assay was performed in 384-well Fluotrac™ 200 HiBase microplates using the HTRF KinEASE™ assay described above for AXL except that the assay volume was reduced to half. Enzyme concentration was 8 ng/mL of recombinant human baculovirus-expressed cMET while the substrate concentrations were 0.1 μM and 0.02 μM for the biotinylated peptide and ATP, respectively. Instead of the Multidrop Combi, the BioRAPTR® FRD microfluidic workstation (Beckman Coulter, Brea, Calif.) was utilized for reagent additions.
(§1) Inhibition curves for compounds were generated by plotting percent control activity versus log 10 of the concentration of compound. IC50 values were calculated by nonlinear regression using the sigmoidal dose-response (variable slope) equation in GraphPad Prism as follows: y=bottom+(top−bottom)/(1+10(log IC50−x)*Hill Slope) where y is the % kinase activity at a given concentration of compound, x is the logarithm of the concentration of compound, bottom is the % of control kinase activity at the highest compound concentration tested, and top is the % of control kinase activity at the lowest compound concentration examined. The values for bottom and top were fixed at 0 and 100, respectively.
Background: In TR-FRET formats the signal depends on donor and acceptor labels being close together.

Test [2] addresses recombinant human baculovirus-expressed AXL (Homo sapiens (Human), UniProt P30530). Description: AXL Kinase Assay (HTRF KinEASE). The format is biochemical. The settings on record: average of two or more determinations. How it is done: The ability of compounds to inhibit the kinase activity of recombinant human baculovirus-expressed AXL was measured by homogeneous TRF (HTRF) using Cisbio's KinEASE™ assay system in white 384-well Optiplates. Assay buffer contained 1 mM DTT, 2 mM MnCl2, 2% DMSO, […] supplement enzymatic buffer, and 1× enzymatic buffer. A 2× concentration of tyrosine kinase (TK) substrate-biotin/ATP mixture made in assay buffer was added to plates at 10 μL/well using the Multidrop Combi (Thermo Fisher Scientific, Waltham, Mass.). […] Compounds (100 nL), diluted in 100% DMSO on the Biomek FX, (Beckman Coulter, Inc., Brea, Calif.), were transferred to the assay plates using the Biomek FX pintool (2.5% final DMSO in assay). […] Plates were sealed, briefly shaken and incubated at 25° C. for 30 minutes. […] Plates were sealed, briefly shaken and incubated at 25° C. for 1 hour.
as §1

For orientation: IC50 means the concentration that gives 50% inhibition. On to `COc1cc2nccc(Oc3ccc(NC(=O)c4cn(CCCO)c(=O)n(-c5ccc(F)cc5)c4=O)c(F)c3)c2cc1OC` [Example 51, 3-(4-Fluorophenyl)-1-(3-hydroxypropyl)-2,4-dioxo-1,2,3,4-tetrahydropyrimidine-5-carboxylic acid [4-(6,7-dimethoxy-quinolin-4-yloxy)-2-fluoro-phenyl]-amide], for which the IC50 in test [1] and in test [2] was less than 0.01 µM in each case.
Take `CCn1cc(C(=O)Nc2ccc(Oc3ccnc4cc(OC)cc(OC)c34)cc2)c(=O)n(-c2ccc(F)cc2)c1=O` [Example 39, 1-Ethyl-3-(4-fluorophenyl)-2,4-dioxo-1,2,3,4-tetrahydropyrimidine-5-carboxylic acid [4-(5,7-dimethoxyquinolin-4-yloxy)-phenyl]-amide]: the IC50 in test [2] was less than 0.01 µM.
On to `COc1cc2nccc(Oc3ccc(NC(=O)c4cn(C5CCCC5)c(=O)n(-c5ccc(F)cc5)c4=O)cc3F)c2cc1OC` [Example 76, 1-Cyclopentyl-3-(4-fluoro-phenyl)-2,4-dioxo-1,2,3,4-tetrahydro-pyrimidine-5-carboxylic acid [4-(6,7-dimethoxy-quinolin-4-yloxy)-3-fluoro-phenyl]-amide], for which the IC50 in test [2] was less than 0.01 µM.
For the compound `COc1cc2nccc(Oc3ccc(NC(=O)c4cn(Cc5csc(C)n5)c(=O)n(-c5ccc(F)cc5)c4=O)cc3F)c2cc1OC` [Example 75, 3-(4-Fluoro-phenyl)-1-(2-methyl-thiazol-4-ylmethyl)-2,4-dioxo-1,2,3,4-tetrahydro-pyrimidine-5-carboxylic acid [4-(6,7-dimethoxy-quinolin-4-yloxy)-3-fluoro-phenyl]-amide], the IC50 in test [2] is less than 0.01 µM.
On to `CCn1cc(C(=O)Nc2ccc(Oc3ccnc4ccc(OC)c(OC)c34)cc2)c(=O)n(-c2ccc(F)cc2)c1=O` [Example 167, 1-Ethyl-3-(4-fluoro-phenyl)-2,4-dioxo-1,2,3,4-tetrahydro-pyrimidine-5-carboxylic acid [4-(5,6-dimethoxy-quinolin-4-yloxy)-phenyl]-amide], for which the IC50 in test [2] was less than 0.01 µM.
Take `COc1cc2nccc(Oc3ccc(NC(=O)c4nn(C)c(=O)n(Cc5cc(C)on5)c4=O)cc3F)c2cc1OC` [Example 116, 2-Methyl-4-(5-methyl-isoxazol-3-ylmethyl)-3,5-dioxo-2,3,4,5-tetrahydro-[1,2,4]triazine-6-carboxylic acid [4-(6,7-dimethoxy-quinolin-4-yloxy)-3-fluoro-phenyl]-amide]: the IC50 in test [1] lay in the range of 0.01 to 0.1 µM.
On to `COc1cc2c(Oc3ccc(NC(=O)c4cn(C(C)C)c(=O)n(-c5ccc(F)cc5)c4=O)cc3F)ccnc2cc1OCCCN1CCOCC1` [Example 47, 3-(4-Fluorophenyl)-1-isopropyl-2,4-dioxo-1,2,3,4-tetrahydropyrimidine-5-carboxylic acid {3-fluoro-4-[6-methoxy-7-(3-morpholin-4-yl-propoxy)-quinolin-4-yloxy]phenyl}-amide], for which the IC50 in test [1] was 0.01 to 0.1 µM.
In the case of `CCOc1cc2nccc(Oc3ccc(NC(=O)c4cn(C(C)C)c(=O)n(-c5ccc(F)cc5)c4=O)cc3F)c2cc1OCC` [Example 37, 3-(4-Fluorophenyl)-1-isopropyl-2,4-dioxo-1,2,3,4-tetrahydropyrimidine-5-carboxylic acid [4-(6,7-diethoxyquinolin-4-yloxy)-3-fluoro-phenyl]-amide], in test [1], the IC50 fell in the range of 0.101 to 1 µM.
For `COc1cc2nccc(Oc3ccc(NC(=O)c4cn(CCOCc5ccccc5)c(=O)n(-c5ccc(F)cc5)c4=O)cc3F)c2cc1OC` [Example 10, 1-(2-Benzyloxyethyl)-3-(4-fluorophenyl)-2,4-dioxo-1,2,3,4-tetrahydropyrimidine-5-carboxylic acid [4-(6,7-dimethoxyquinolin-4-yloxy)-3-fluorophenyl]-amide], the IC50 in test [1] was in the range of 0.01 to 0.1 µM.
Take `COc1cc2nccc(Oc3ccc(NC(=O)c4cn(CCOCc5ccccc5)c(=O)n(-c5ccc(F)cc5)c4=O)cc3)c2cc1OC` [Example 19, 1-(2-Benzyloxyethyl)-3-(4-fluoro-phenyl)-2,4-dioxo-1,2,3,4-tetrahydropyrimidine-5-carboxylic acid [4-(6,7-dimethoxyquinolin-4-yloxy)-phenyl]-amide]: the half-maximal inhibitory concentration (IC50) in test [1] lay within 0.01 to 0.1 µM.
In the case of `COc1cc2nccc(Oc3c(C)cc(NC(=O)c4cn(C(C)C)c(=O)n(-c5ccc(F)cc5)c4=O)cc3C)c2cc1OC` [Example 162, 3-(4-Fluoro-phenyl)-1-isopropyl-2,4-dioxo-1,2,3,4-tetrahydro-pyrimidine-5-carboxylic acid [4-(6,7-dimethoxy-quinolin-4-yloxy)-3,5-dimethyl-phenyl]-amide], the IC50 in test [1] was 0.01 to 0.1 µM.
On to `CCn1cc(C(=O)Nc2ccc(Oc3ccnc4cc(OC)c(OC)cc34)c(C3CC3)c2)c(=O)n(-c2ccc(F)cc2)c1=O` [Example 59, 1-Ethyl-3-(4-fluoro-phenyl)-2,4-dioxo-1,2,3,4-tetrahydropyrimidine-5-carboxylic acid [3-cyclopropyl-4-(6,7-dimethoxy-quinolin-4-yloxy)-phenyl]-amide], for which the IC50 in test [1] is 0.01 to 0.1 µM.
As for `CCn1cc(C(=O)Nc2ccc(Oc3ccnc4cc(OC)c(OC)cc34)c(Cl)c2)c(=O)n(-c2ccc(F)cc2)c1=O` [Example 152], the IC50 in test [1] was 0.01 to 0.1 µM.
On the same count and under the same terms, the result for `CCOc1cc2nccc(Oc3ccc(NC(=O)c4nn(CC)c(=O)n(-c5ccc(F)cc5)c4=O)cc3F)c2cc1OCC` [Example 109, 2-Ethyl-4-(4-fluorophenyl)-3,5-dioxo-2,3,4,5-tetrahydro[1,2,4]triazine-6-carboxylic acid [4-(6,7-diethoxy-quinolin-4-yloxy)-3-fluoro-phenyl]-amide] reads 0.01 to 0.1 µM; that for `COc1cc2nccc(Nc3ccc(NC(=O)c4cn(C(C)C)c(=O)n(-c5ccc(F)cc5)c4=O)cc3)c2cc1OC` [Example 135, 3-(4-Fluorophenyl)-1-isopropyl-2,4-dioxo-1,2,3,4-tetrahydropyrimidine-5-carboxylic acid [4-(6,7-dimethoxyquinolin-4-ylamino)-phenyl]-amide], 0.101 to 1 µM.
Same read-out and setting: then `COc1cc2c(Oc3ccc(NC(=O)c4cn(C(C)C)c(=O)n(-c5ccc(F)cc5)c4=O)cc3F)ccnc2cc1O` [Example 46, 3-(4-Fluorophenyl)-1-isopropyl-2,4-dioxo-1,2,3,4-tetrahydropyrimidine-5-carboxylic acid [3-fluoro-4-(7-hydroxy-6-methoxyquinolin-4-yloxy)-phenyl]-amide], with less than 0.01 µM.
Take `COc1cc2nccc(Oc3ccc(NC(=O)c4cn(CC5CC5)c(=O)n(CC5CC5)c4=O)cc3F)c2cc1OC` [Example 95, 1,3-Bis-cyclopropylmethyl-2,4-dioxo-1,2,3,4-tetrahydro-pyrimidine-5-carboxylic acid [4-(6,7-dimethoxy-quinolin-4-yloxy)-3-fluoro-phenyl]-amide]: in test [1], the IC50 lay within 0.01 to 0.1 µM.
In the case of `COc1cc2nccc(Oc3ccc(NC(=O)c4cn(C(C)C)c(=O)n(-c5ccc(F)cc5)c4=O)c(C)c3C)c2cc1OC` [Example 158, 3-(4-Fluoro-phenyl)-1-isopropyl-2,4-dioxo-1,2,3,4-tetrahydro-pyrimidine-5-carboxylic acid [4-(6,7-dimethoxy-quinolin-4-yloxy)-2,3-dimethyl-phenyl]-amide], the concentration for half-maximal inhibition (IC50) in test [1] was 0.101 to 1 µM.
In the case of `CCn1nc(C(=O)Nc2ccc(Oc3ccnc4cc(OC)c(OC)cc34)cn2)c(=O)n(-c2ccc(F)cc2)c1=O` [Example 164, 2-Ethyl-4-(4-fluoro-phenyl)-3,5-dioxo-2,3,4,5-tetrahydro-1,2,4-triazine-6-carboxylic acid [5-(6,7-dimethoxy-quinolin-4-yloxy)-pyridin-2-yl]-amide], the IC50 in test [1] fell in the range of 0.01 to 0.1 µM.
For `COc1cc2nccc(Oc3ccc(NC(=O)c4nn(C)c(=O)[nH]c4=O)cc3F)c2cc1OC` [Example 114, 2-Methyl-3,5-dioxo-2,3,4,5-tetrahydro-[1,2,4]triazine-6-carboxylic acid [4-(6,7-dimethoxy-quinolin-4-yloxy)-3-fluoro-phenyl]-amide], the IC50 in test [1] lay within 0.01 to 0.1 µM.
For the compound `CCC#CCn1c(=O)c(C(=O)Nc2ccc(Oc3ccnc4cc(OC)c(OC)cc34)c(F)c2)nn(C)c1=O` [Example 117, 2-Methyl-3,5-dioxo-4-pent-2-ynyl-2,3,4,5-tetrahydro-[1,2,4]triazine-6-carboxylic acid [4-(6,7-dimethoxy-uinolin-4-yloxy)-3-fluoro-phenyl]-amide], in test [1], the IC50 is 0.101 to 1 µM.
Same read-out and setting: then `C=CCn1cc(C(=O)Nc2ccc(Oc3ccnc4cc(OC)c(OC)cc34)c(F)c2)c(=O)n(CC=C)c1=O` [Example 96, 1,3-Diallyl-2,4-dioxo-1,2,3,4-tetrahydro-pyrimidine-5-carboxylic acid [4-(6,7-dimethoxy-quinolin-4-yloxy)-3-fluoro-phenyl]-amide], with 0.01 to 0.1 µM.
